Measured values: US20100113332A1, “METHOD OF TREATING AN INFLAMMATORY DISEASE BY DOUBLE STRANDED RIBONUCLEIC ACID” (NASTECH PHARMACEUTICAL COMPANY INC., priority 2004, published 2010)

Legend:
TNF-α protein = TNF-α protein ELISA in human monocytes; assay type: cell-based; conditions: siRNA screen with Lipofectamine 2000, LPS-activated monocytes
Method: Human monocytes (CD14+) treated with LPS induce TNF-α-specific mRNA within approximately 2 hrs, followed by peak levels of TNF-α protein 2 hrs later. siRNAs were screened for knockdown activity by transfecting monocytes with siRNA candidate sequences using Lipofectamine 2000, treating infected cells with LPS, and measuring TNF-α mRNA levels approximately 16 hrs later.
To quantitate mRNA level in the cells, both house keeping gene (cypB) and target gene (TNF-α) mRNA were measured, and the reading for TNF-α was normalized with cypB to obtain relative luminescence unit. To quantify protein level, the TNF-α ELISA from BD Bioscience was used according to manufacturer's specification.

TNF-α mRNA = experiment: TNF-α knockdown in human monocytes (branch DNA);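 note: LPS-activated human CD14+ monocytes, TNF-α mRNA read by branched DNA assay and normalized to cypB mRNA, knockdown compared with random-sequence Qneg siRNA as negative control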
Excerpt: For mRNA measurement, branch DNA technology from Genospectra (CA) was used according to manufacturer's specification. Human monocytes (CD14+) treated with LPS induce TNF-α-specific mRNA within approximately 2 hrs, followed by peak levels of TNF-α protein 2 hrs later. siRNAs were screened for knockdown activity by transfecting monocytes with siRNA candidate sequences using Lipofectamine 2000, treating infected cells with LPS, and measuring TNF-α mRNA levels approximately 16 hrs later.
To quantitate mRNA level in the cells, both house keeping gene (cypB) and target gene (TNF-α) mRNA were measured, and the reading for TNF-α was normalized with cypB to obtain relative luminescence unit.
Qneg represents a random siRNA sequence and functions as the negative control in these experiments.

human TNF-α = experiment: plasma human TNF-α by ELISA in human TNF-α transgenic mice; assay type: in vivo, mouse; conditions: average of the mice
Method: For determination of TNF-α level, For the analysis of experiments involving transgenic mice, plasma samples were separated from whole blood collected by orbital bleeding. Plasma levels of hTNF-α were determined by ELISA at a 1:2 dilution according to the manufacturer's instructions (R&D systems, Minneapolis, Minn.).
For Taconic mice, TNF-α levels in plasma were determined by ELISA (R&D systems, Minneapolis, Minn.) and treatment schedules were same as Hellenic transgenic hTNF-αtransgenic mice.

[1] = system: human TNF-α transgenic mice; experiment: RA paw score in human TNF-α transgenic mice; conditions: for RA progression by paw score at week 8 (FIG. 4): siRNA delivered with PN73
Method: For human TNF-α animal disease models, two transgenic models were used. The tg197 mice were acquired from Pasteur Hellenic Institute (Athens, Greece), and the B6.SJL-Tg(TNF) N21 mice were purchased from Taconic, Inc. (Germantown, N.Y.). The genotypes of both human TNF-α transgenic mouse models were performed by suppliers. […] All treatments were by tail vein injection twice a week. […] A similar dose regimen was used for B6.SJL-Tg(TNF) N21 mice. Clinical scores were based on a previously described scoring system (2, 3) as follows: 0 (normal), 1 (edema or distortion of paw or ankle joints), 2 (distortion of paw and ankle joints), or 3 (ankylosis of wrist or ankle joints). The sum of all four paws was scored twice a week with a maximum score of 12 per mouse.
For Hellenic transgenic mice, RA scores were determined (blinded to treatment) using the following criteria: 0, normal; 1, edema or distortion of paw or ankle joints; 2 distortion of paw and ankle joints; 3, ankylosis of wrist or ankle joints.
Human NF-α expressing mice were purchase from the Hellenic Pasture Institute, Greece) at 5 weeks old. […] During the injection periods, plasma samples were collected for ELISA testing (R&D Systems, Cat#SSTA00C), and paw scores were taken twice a week as an accepted index of RA disease progression and therapeutic efficacy (Table 19).
Due to the difference in the starting point (some animals present with scores at earlier points), the scores have been adjusted to 0 for all animals in the experiments. Each paw is given a score between 0 and 3, with the highest score of 12, according to the following scoring index. • 0: Normal • 1: edema or distortion of paw or ankle joints • 2: distortion of paw and ankle joints • 3: ankylosis of wrist or ankle joints.

[2] = system: interferon response markers (IL-1β, INF-α, IL-6, IL-8, IL-12, MIP-1α, IFN-γ, TNF-α); experiment: interferon responsiveness, marker protein ELISA; assay type: cell-based; conditions: for Relative protein expression level of IFN-γ / Relative protein expression level of IL-12 / Relative protein expression level of INF-α: Lipofectamine transfection; for interferon response (ELISA): regardless of transfection reagent
Method: (§1) Interferon responsiveness was assayed by ELISA (protein) and bDNA (mRNA levels).

IL-1β mRNA = experiment: interferon responsiveness, IL-1β mRNA (bDNA); assay type: cell-based; conditions: siRNA complexed with lipofectamine; 100 nM or 200 nM for TNF-α9
Method: as §1

[3] = system: mouse tail fibroblast (MTF) cells; assay type: cell-based; conditions: peptide/siRNA complex
Method: (§2) Cells were plated the day before so that they were ˜50-80% confluent at time of transfection. For complexes, siRNA and peptide were diluted in Opti-MEM® media (Invitrogen), then mixed and allowed to complex 5-10 minutes before adding to cells washed with PBS. Final concentration of siRNA was 500 nM at each peptide concentration (2-50 μM). The conjugate, also diluted in Opti-MEM® media, was added to cells at final concentrations ranging from 62.5 nM to 500 nM. At 500 nM concentration, we also combined with 20% FBS just before adding to washed cells. Cells were transfected for 3 hours at 37° C., 5% CO2. Cells were washed with PBS, treated with trypsin and then analyzed by flow cytometry. siRNA uptake was measured by intensity of Cy5 fluorescence and cellular viability assessed by addition of propidium iodide.
The materials and methods used for the experiments performed in 9L/LacZ cells and mouse fibroblast cells are generally the same as described above, except that for the murine experiments, 9L/LacZ cells were replaced with mouse tail fibroblasts.

9L/LacZ cells [4] = experiment: siRNA uptake by flow cytometry in 9L/LacZ cells; assay type: cell-based, rat; conditions: peptide/siRNA complex
Method: as §2
Uptake was measured using 9L/lacZ cells transfected as described in Example 2. Cells were washed with PBS, treated with trypsin and then analyzed by flow cytometry. siRNA uptake was measured by intensity of FAM fluorescence and cellular viability assessed by addition of propidium iodide.

9L/LacZ cells [5] = experiment: beta-galactosidase knockdown assay of siRNA transfection efficiency; assay type: cell-based, rat; conditions: Histone H2B plus siRNA
Method: For H3, H4 and H2b, a series of experiments was performed to complex these polynucleotide delivery-enhancing polypeptides with siRNA in different ratios. Generally this was initiated with a 1:0.01 to 1:50 of siRNA/histone ratio. To each well in a 96-well microtiter plate, 40 pm siRNA was added. Each well contained beta-gal cells at 50% confluency.
Transfections were performed with either regular siRNA or siRNA complexed with one of the above-identified histone proteins on 9L/beta-gal cells. The siRNA was designed to specifically knock down beta-galactosidase mRNA, and activities are expressed as percentage of beta-gal activities from control (control cells were transfected using lipofectamine without the polynucleotide delivery-enhancing polypeptide).
For beta-galactosidase assays, 9L/LacZ cells, a cell line constitutively expressing beta-galactosidase, were used. 9L/LacZ cells are rat gliosarcoma fibroblast cells that constitutively express LacZ and were obtained from ATCC (#CRL-2200). […]
The transfection efficiency inversely correlates with the amount of beta-galactosidase activity measured from the cell lysate. Upon transfection, a measured decrease in beta-galactosidase activity indicates a successful transfection. Thus, in the absence of transfection, the measured beta-galactosidase activity is 100% and the transfection efficiency is 0%. […]

[6] = siRNA 4 nM complexed with 1.6 uM PN73
[7] = siRNA 4 nM complexed with 1.6 uM PN509
[8] = siRNA 20 nM complexed with 0.5 uM PN250
[9] = siRNA 20 nM complexed with 0.75 uM PN250
[10] = siRNA 20 nM complexed with 1 uM PN250

## GCGUGGAGCUGAGAGAUAA (chemistry not given here) [TNF-α-1]
TNF-α protein
  reduction in TNF-α protein level: 75%
TNF-α mRNA; siRNA screen with Lipofectamine 2000, LPS-activated monocytes
  TNF-α mRNA knockdown: 50%

## infliximab [Ramicade]
Human TNF-α; age 7 weeks
  Quantity of TNF-α protein in blood plasma by ELISA: 102.24 pg/mL
Human TNF-α; age 8 weeks
  Quantity of TNF-α protein in blood plasma by ELISA: 39.27 pg/mL
Human TNF-α; age 9 weeks
  Quantity of TNF-α protein in blood plasma by ELISA: 25.80 pg/mL
[1]; twice weekly from age 6 weeks, effect beginning at age 7 weeks
  RA score (paw and joint inflammation): RA score stabilization

## AACCUCCUCUCUGCCAUCAAG (siRNA; delivered as complex with delivery-enhancing peptide, further chemistry not given here) [LC3]
TNF-α mRNA; [6]
  KD (%) TNF-α: 23.17%
TNF-α mRNA; [7]
  KD (%) TNF-α: 30.14%

## UAGCCCAUGUUGUAGCAAA (siRNA; delivered with peptide PN73, further chemistry not given here) [TNF-α9]
[2]
  Relative protein expression level of IFN-γ: Background
  Relative protein expression level of IL-12: Background
  Relative protein expression level of INF-α: Background
[2]; transfection with lipofectamine
  IL-1β, IL-6 and MIP-1α protein expression levels: increase
IL-1β mRNA
  IL-1β mRNA levels: significant increase
[1]; group TNF #7
  Relative effect of siRNA, effectiveness relative to Ramicade by week 8: LC20 and TNF-α9 are more
[1]
  RA progression by paw score at week 8 (FIG. 4): delayed RA progression

## AAVALLPAVLLALLAPRKKRRQRRRPPQC [PN27]
[3]
  Percent Uptake Primary MTF Cells: 61%
9L/LacZ cells [4]
  Percent Uptake LacZ Cells: 86%

## GCCUGUACCUCAUCUACUC (siRNA; chemistry not fully specified) [YC12]
TNF-α mRNA; [6]
  KD (%) TNF-α: 43.60%
TNF-α mRNA; [7]
  KD (%) TNF-α: 64.37%
TNF-α mRNA; [8]
  KD (%) TNF-α: 17.06%
TNF-α mRNA; [9]
  KD (%) TNF-α: 21.66%
TNF-α mRNA; [10]
  KD (%) TNF-α: 15.91%
[1]; group TNF #6
  Relative effect of siRNA, paw score: Overall low paw score. YC12

## Histone H2B
9L/LacZ cells [5]
  measured beta-galactosidase activity: 37.97%

## AAUCGGCCCGACUAUCUCGACUU (chemistry not given here) [LC1]
TNF-α mRNA; [6]
  KD (%) TNF-α: 20.08%
TNF-α mRNA; [7]
  KD (%) TNF-α: 31.13%

## GCGUGGAGCUGAGAGAUAA (siRNA; delivered as complex with delivery-enhancing peptide, further chemistry not given here) [YC11]
TNF-α mRNA; [8]
  KD (%) TNF-α: 13.70%
TNF-α mRNA; [9]
  KD (%) TNF-α: 21.09%
TNF-α mRNA; [10]
  KD (%) TNF-α: 33.10%

## AAUGGCGUGGAGCUGAGAGAU (siRNA; delivered as complex with delivery-enhancing peptide, further chemistry not given here) [LC2]
TNF-α mRNA; [6]
  KD (%) TNF-α: 19.06%
TNF-α mRNA; [7]
  KD (%) TNF-α: 37.04%

## AAGGGUGACCGACUCAGCGcU (siRNA; as printed in the source, key not given here) [LC6]
TNF-α mRNA; [6]
  KD (%) TNF-α: 44.10%
TNF-α mRNA; [7]
  KD (%) TNF-α: 50.19%

## AACUGAAAGCAUGAUCCGGGA (siRNA; delivered as complex with delivery-enhancing peptide, further chemistry not given here) [LC4]
TNF-α mRNA; [6]
  KD (%) TNF-α: 26.67%
TNF-α mRNA; [7]
  KD (%) TNF-α: 22.71%

## GCCUGUAGCCCAUGUUGUA (chemistry not given here) [TNF-α-2]
[1]
  RA progression by paw score at week 8 (FIG. 4): delayed RA progression

## GCCCGACUAUCUCGACUUU (siRNA; delivered as complex with delivery-enhancing peptide, further chemistry not given here) [YC17]
TNF-α mRNA; [8]
  KD (%) TNF-α: 17.30%
TNF-α mRNA; [9]
  KD (%) TNF-α: 29.82%
TNF-α mRNA; [10]
  KD (%) TNF-α: 24.68%

## AACCCAUGUGCUCCUCACCCA (siRNA; delivered as complex with delivery-enhancing peptide, further chemistry not given here) [LC8]
TNF-α mRNA; [6]
  KD (%) TNF-α: 41.24%
TNF-α mRNA; [7]
  KD (%) TNF-α: 47.35%

## CUGAUUAAGUUGUCUAAACAA (siRNA; delivered as complex with delivery-enhancing peptide, further chemistry not given here) [LC16]
TNF-α mRNA; [6]
  KD (%) TNF-α: 55.91%
TNF-α mRNA; [7]
  KD (%) TNF-α: 40.06%

## CUUGUGAUUAUUUAUUAUUUA (siRNA; delivered as complex with delivery-enhancing peptide, further chemistry not given here) [LC18]
TNF-α mRNA; [6]
  KD (%) TNF-α: 63.44%
TNF-α mRNA; [7]
  KD (%) TNF-α: 58.13%

## NH2-RKKRRQRRRPPQCAAVALLPAVLLALLAP-amide (H-RKKRRQRRRPPQCAAVALLPAVLLALLAP-NH2) [PN28]
[3]
  Percent Uptake Primary MTF Cells: 81%
9L/LacZ cells [4]
  Percent Uptake LacZ Cells: 79%

## NH2-LLETLLKPFQCRICMRNFSTRQARRNHRRRHRR-amide (H-LLETLLKPFQCRICMRNFSTRQARRNHRRRHRR-NH2; cysteine pairing not given here) [PN202]
9L/LacZ cells [4]
  Percent Uptake LacZ Cells: 71%

## C(YGRKKRRQRRRG)2 [PN204]
9L/LacZ cells [4]
  Percent Uptake LacZ Cells: 83%

## AAUCAGCCGCAUCGCCGUCUC (siRNA; delivered as complex with delivery-enhancing peptide, further chemistry not given here) [LC7]
TNF-α mRNA; [6]
  KD (%) TNF-α: 42.76%
TNF-α mRNA; [7]
  KD (%) TNF-α: 56.11%

## UAGGGUCGGAACCCAAGCUUA [LC20]
[2]
  Relative protein expression level of IFN-γ: Background
  Relative protein expression level of IL-12: Background
  Relative protein expression level of INF-α: Background
  interferon response (ELISA): no interferon response
TNF-α mRNA; absence of PN73, 0-2.5 nM
  TNF-α knockdown activity (FIG. 6-C): little knockdown activity
TNF-α mRNA; [6]
  KD (%) TNF-α: 42.68%
TNF-α mRNA; [7]
  KD (%) TNF-α: 71.12%
TNF-α mRNA; [8]
  KD (%) TNF-α: −3.80%
TNF-α mRNA; [9]
  KD (%) TNF-α: 10.72%
TNF-α mRNA; [10]
  KD (%) TNF-α: 26.53%
TNF-α mRNA; siRNA complexed with PN73 1:1, 0-2.5 nM
  decrease in TNF-α gene expression relative to Qneg control (FIG. 6-B): ~30%
[1]; 2 mg/kg LC20, PN73 1:5
  delay in RA progression relative to lower doses: greatest relative observed delay in RA progression
[1]; group TNF #1 (LC20, Ramicade, PBS)
  Relative effect of siRNA, effectiveness relative to Ramicade: LC20 is as effective as
[1]; group TNF #4
  Relative effect of siRNA, paw score: Overall low paw score
[1]; group TNF #6
  Relative effect of siRNA, paw score: Overall low paw score. YC12
[1]; group TNF #7
  Relative effect of siRNA, effectiveness relative to Ramicade by week 8: LC20 and TNF-α9 are more
  Relative effect of siRNA, effectiveness relative to Ramicade by week 11: week 8; LC20 is equally
[1]
  RA progression by paw score at week 8 (FIG. 4): delayed RA progression

## CCGACUCAGCGCUGAGAUCAA (siRNA; chemistry not fully specified) [LC17]
[2]
  Relative protein expression level of IFN-γ: Background
  Relative protein expression level of IL-12: Background
  Relative protein expression level of INF-α: Background
  interferon response (ELISA): no interferon response
TNF-α mRNA; [6]
  KD (%) TNF-α: 50.78%
TNF-α mRNA; [7]
  KD (%) TNF-α: 48.94%
[1]; group TNF #6
  Relative effect of siRNA, paw score: Overall low paw score. YC12

## CCUCAGCCUCUUCUCCUUCCUGA (chemistry not given here) [LC12]
TNF-α mRNA; [6]
  KD (%) TNF-α: 40.61%
TNF-α mRNA; [7]
  KD (%) TNF-α: 17.03%

## AAGCUCCAGUGGCUGAACCGC (siRNA; delivered as complex with delivery-enhancing peptide, further chemistry not given here) [LC9]
TNF-α mRNA; [6]
  KD (%) TNF-α: 40.32%
TNF-α mRNA; [7]
  KD (%) TNF-α: 58.20%

## CCAGGGACCUCUCUCUAAU (siRNA; delivered as complex with delivery-enhancing peptide, further chemistry not given here) [TNF-4]
TNF-α mRNA; [8]
  KD (%) TNF-α: 0.90%
TNF-α mRNA; [9]
  KD (%) TNF-α: 14.39%
TNF-α mRNA; [10]
  KD (%) TNF-α: 26.47%

## AAUCUCGACUUUGCCGAGUCU (chemistry not given here) [LC5]
TNF-α mRNA; [6]
  KD (%) TNF-α: 46.78%
TNF-α mRNA; [7]
  KD (%) TNF-α: 34.93%

## GCAGGUCUACUUUGGGAUC (siRNA; delivered as complex with delivery-enhancing peptide, further chemistry not given here) [YC18]
TNF-α mRNA; [8]
  KD (%) TNF-α: 20.72%
TNF-α mRNA; [9]
  KD (%) TNF-α: 17.82%
TNF-α mRNA; [10]
  KD (%) TNF-α: 24.66%

## AACCAAUGCCCUCCUGGCCAA (siRNA; delivered as complex with delivery-enhancing peptide, further chemistry not given here) [LC14]
TNF-α mRNA; [6]
  KD (%) TNF-α: 50.76%
TNF-α mRNA; [7]
  KD (%) TNF-α: 42.78%

## AAGCCUGUAGCCCAUGUUGUA (siRNA; delivered as complex with delivery-enhancing peptide, further chemistry not given here) [LC19]
TNF-α mRNA; [6]
  KD (%) TNF-α: 61.83%
TNF-α mRNA; [7]
  KD (%) TNF-α: 56.38%
